Experimental data published in patent US10683520B2, “Polycarboxylic acid extraction” (PURAC BIOCHEM BV, priority 2011, dated 2020).

Test: Forward extraction of acid from salt-containing aqueous feed into methyl-isobutylketone and back extraction into water
Assay type: physicochemical
Settings: 20° C.; for DBE (distribution ratio in back extraction, [acid]organic/[acid]water): MIBK organic phase / pure water; for [acid] aqueous fraction after back extraction: feed with 15 wt. % MgCl2 (acid in feed per Table 1.1), back extraction into pure water; for [acid] aqueous fraction after back extraction / DFE (distribution ratio in forward extraction, [acid]organic/[acid]water) / concentration ratio (acid concentration in product / acid concentration in feed): MIBK; for DFE (distribution ratio in forward extraction, [acid]organic/[acid]water) / concentration ratio (acid concentration in product / acid concentration in feed): feed with 15 wt. % MgCl2
Source text: Forward extraction and back extraction as used in the method of the invention are based on the difference in solubility of the carboxylic acid in water and the organic solvent at different temperatures. The solubility of a compound in one solvent relative to another solvent can be expressed in terms of the distribution ratio (DR). […] The distribution ratio may be defined as the ratio of the carboxylic acid concentration dissolved in the organic phase ([carboxylic acid]organic) over the concentration of the carboxylic acid dissolved in water ([carboxylic acid]water), provided that the two phases are in equilibrium with each other: DR=[carboxylic acid]organic/[carboxylic acid]water (1)
The general procedure is set up to mimic a continuous extraction process.
A feed solution was prepared comprising acid and salt in the amounts stipulated in the table. The solutions were stirred overnight.
1000 g of this feed solution was mixed with approximately 100 g of methyl-isobutylketone as solvent and stirred at 20° C. for minimum of 15 minutes. The mixture was transferred to a separation funnel where phases were separated. Samples of both phases were taken for analysis. Then approximately 100 g of organic phase was mixed with 10 g of pure water and stirred for minimum of 15 min at 20° C. Subsequently the whole mixture is again transferred to the separation funnel, phases are left to separate and samples of both phases are taken. Samples were analysed on acid content.
These tables also give the concentration ratio, which is the ratio between the acid concentration in the product and the acid concentration in the feed.
The composition of the starting solution and the acid concentration in the products is in Table 2.1 below.

| SMILES | DBE (distribution ratio in back extraction, [acid]organic/[acid]water) | [acid] aqueous fraction after back extraction [wt. %] | DFE (distribution ratio in forward extraction, [acid]organic/[acid]water) | concentration ratio (acid concentration in product / acid concentration in feed) |
| --- | --- | --- | --- | --- |
| O=C(O)/C=C/C(=O)O [Fumaric acid, fumaric acid] | 0.24 | 0.21 | 1.75 | 1.8 |
| C=C(CC(=O)O)C(=O)O [Itaconic acid, itaconic acid] | 1.07 | 2.8 | 2.83 | 1.9 |
